Experimental data: patent US11011273B2, “Pathway analysis for identification of diagnostic tests” (Nantomics, LLC, priority 2013, dated 2021)

Key:
Format in all cases: cell-based
[1] = system: set of cell lines (MV411, TT, AN3CA, K562, PC3, HCT116, ASPC1, MDAMB231, TF1, NCIH23, MIAPACA2, HS766T, CAPAN2, A549, HT29, U937, BXPC3, CAPAN1, SU8686); assay: Treatment effectiveness (GI50) of NANT3456 on a set of cell lines; conditions: median over all cell lines of FIG. 2; dotted line 220
Source text: (§1) There are many ways to derive and measure treatment effectiveness data 136 for a particular treatment. For example, effectiveness data can be derived by administering the evaluated treatment to each and every diseased cell line, and measure the effect of the evaluated treatment on each diseased cell line. The measurement can be based on an amount of drug needed to obtain a threshold inhibition effect of the disease in the cell line (e.g., the amount of drug needed to reduce the activities of the disease by half).
(§2) FIG. 2 illustrates a graph 200 showing a graphical representation of an example set of treatment effectiveness data 136 that represents how effective NANT3456 is on a set of cell lines. NANT3456 is described in more detail in WO/2014/071378, published May 8, 2014, which is incorporated by reference herein. In some embodiments, the data points on FIG. 2 represent distinct cell lines from different tissues, distinct cell lines from the same tissue, or any combination thereof. Further, the cell lines may be derived from a single host, multiple distinct hosts, or any combination. In this example, NANT3456 is known to be capable of treating diseases associated with the set of cell lines (e.g., cell lines MV411, TT, AN3CA, K562, PC3, HCT116, ASPC1, MDAMB231, TF1, NCIH23, MIAPACA2, HS766T, CAPAN2, A549, HT29, U937, BXPC3, CAPAN1, and SU8686). […]

cell line MV411 = assay: Treatment effectiveness (GI50) on cell line MV411; conditions: Homo sapiens, MV4-11; data point 225, FIG. 2; read-out: sensitivity class from GI50 treatment effectiveness value
Source text: as §1, §2

cell line CAPAN1 = assay: Treatment effectiveness (GI50) on cell line CAPAN1; conditions: Homo sapiens, CAPAN-1; data point 250, FIG. 2; read-out: sensitivity class from GI50 treatment effectiveness value
Source text: as §1, §2

cell line PC3 = assay: Treatment effectiveness (GI50) on cell line PC3; conditions: data point 235, FIG. 2; read-out: sensitivity class from GI50 treatment effectiveness value
Source text: as §1, §2

cell line TT = assay: Treatment effectiveness (GI50) on cell line TT; conditions: data point 230, FIG. 2; read-out: sensitivity class from GI50 treatment effectiveness value
Source text: as §1, §2

cell line HT29 = assay: Treatment effectiveness (GI50) on cell line HT29; conditions: Homo sapiens, HT-29; data point 245, FIG. 2; read-out: sensitivity class from GI50 treatment effectiveness value
Source text: as §1, §2

NCIH23 = assay: Treatment effectiveness (GI50) on cell line NCIH23; conditions: Homo sapiens, NCI-H23; data point 240, FIG. 2; read-out: sensitivity class from GI50 treatment effectiveness value
Source text: as §1, §2

threshold effectiveness value (median value of all treatment effectiveness values, GI50) [1]: 1.7 log10 units of nanomolar drug | GI50 (cell line MV411): < 50.1 nM | GI50 (cell line PC3): < 50.1 nM | GI50 sensitivity class (cell line HT29): > 50.1 nM
Structure (SMILES): C/C=C/c1cc(Nc2cc(N3CCN(C)CC3)nc(Oc3cc(F)c4[nH]c(C)cc4c3F)n2)n[nH]1 [NANT3456]
GI50 (cell line CAPAN1): > 50.1 nM | GI50 (cell line TT): < 50.1 nM | GI50 (NCIH23): > 50.1 nM
